The values that follow come from publication PMC12502564, “Evaluation of LLM-generated peptide as foundation template for discovery of effective encrypted AMPs against clinical superbugs” (Microbiology Spectrum, 2025).

Where two headings read alike, the source gives them in different places. No end group written: not given here. Some results are limits rather than exact numbers.

One assay relates to MRSA 2210187. In kind it is cell-based, methicillin-resistant Staphylococcus aureus. The protocol:
(§1) The MIC of all peptides was determined using the microdilution broth method in a 96-well plate. Peptides were dissolved in the DMSO with an initial concentration of 12,800 µg mL^−1. And cells of eight strains were separately suspended in the MHB at a density of approximately 10^5 CFU mL^−1. In the first column of the 96-well plate, 16 µL of peptide and 184 µL of MHB were added to each well to achieve a final concentration of 1,024 µg mL^−1. One-hundred microliters of MHB was added to each of the remaining wells. Then the first column of liquid was mixed well and diluted to the 12th column using the twofold dilution method. One-hundred microliters of prepared bacterial solution was added to all wells, and the 96-well plate was incubated at 37°C for 18–24 h. The MIC was defined as the concentration of the peptide in the well just preceding the first well showing visible turbidity. All experiments were performed in triplicate to ensure reliability.

Assay [1] concerns CRAB 2210186. In kind it is cell-based, carbapenem-resistant Acinetobacter baumannii. The protocol: as §1
A further assay concerns MRSA. As to the kind of experiment: Time-kill curve. It counts as cell-based, methicillin-resistant Staphylococcus aureus. Particulars: ~10^5 CFU mL^−1 in MH broth. The protocol: (§2) Bacteria in the logarithmic growth phase were diluted to approximately 10^5 CFU mL^−1 in MH broth and treated with peptides, polymyxin B, or vancomycin at final concentrations of 1/2 × MIC, 1 × MIC, 2 × MIC, and 4 × MIC. After the addition of the test compound, samples were taken at 0, 3, 6, 9, 12, and 24 h and serially diluted. Subsequently, 5 µL of the diluted samples were spread on agar plates and incubated at 37°C for 20 h. The bacterial concentration CFU mL^−1 at the corresponding time point of each sample was calculated based on the number of colonies on the agar plate, and the log10 (CFU mL^−1) was plotted against time (h).

Assay [2] relates to CRAB. On the set-up: method as in earlier work. The note with it: in vitro; cited from earlier work. An excerpt: Using this validated AMP as a template, we performed sequence alignment with the National Center for Biotechnology Information (NCBI) database to identify encrypted AMPs.
On the set-up of assay [3]: method as in earlier work. The note with it: cited from earlier work.
The subject of assay [4] is CRAB. Briefly: PI assay, cytoplasmic membrane integrity. Particulars: 10 × MIC, 10^8 CFU mL^−1. In kind it is cell-based, carbapenem-resistant Acinetobacter baumannii. The procedure:
PI (which is known to stain nuclear chromatin upon cell membrane disruption) assay was carried out to evaluate the ability of AMPs to disrupt the cytoplasmic membrane integrity ([63]). After CRAB was grown to the exponential phase, bacteria cells were harvested and washed three times in washing buffer of 5 mM glucose and 5 mM HEPES (1:1, pH = 7.2) and then re-adjusted to 10^8 CFU mL^−1 in the same buffer. Bacterial suspensions (150 µL/well) were loaded into black-walled, clear-bottom 96-well plates with lids. Following bacterial loading, 50 µL of 10 µM PI was introduced into each well, with 30 min pre-incubation CRAB. Post-incubation fluorescence signals were acquired using 535 nm excitation and 617 nm emission wavelengths. Compounds (10 µL) were then administered to achieve 1 × MIC/10 × MIC-equivalent final concentrations in the dye-loaded bacterial suspensions. Real-time fluorescence monitoring was performed with continuous acquisition during the first 10 min, followed by measurements at 10-min intervals. Negative controls received 10 µL sterile water in lieu of antimicrobial peptides while maintaining equivalent pre-incubation conditions. All experimental conditions were executed with three biological replicates.

The test system of assay [5] is CRAB. As to the kind of experiment: Biofilm formation inhibition assay (crystal violet). Particulars: 1/2 × MIC, 24 h, OD570. It counts as cell-based, carbapenem-resistant Acinetobacter baumannii. The procedure:
The crystal violet staining method ([66]) was used to determine the inhibitory activity of the compounds against the biofilm formation of CRAB. The steps were as follows: prepare a bacterial solution (10^6 CFU mL^−1), mix it with different final concentrations of the compound (1/2 × MIC, 1 × MIC, 2 × MIC, and 4 × MIC), and culture it for 24 h. After discarding the supernatant, wash with PBS, add anhydrous methanol to fix the biofilm, and then stain it with crystal violet for 60 min after drying. After washing, dissolve the biofilm with 33% glacial acetic acid, and measure OD570. Three parallel experiments were performed, and the biofilm formation inhibition rate was calculated by the following formula:
(3) Biofilm formation inhibition rate (%)=(1−OD(sample)− OD(blank)/OD(negative)− OD(blank))×100%

The test system of assay [6] is CRAB. Briefly: Drug resistance assay, 20 passages. It counts as cell-based, carbapenem-resistant Acinetobacter baumannii. Particulars: 20 passages at 0.5-fold MIC, n = 3. The protocol:
Resistance development assays were performed following previous report ([43]). CRAB was cultured overnight at 37°C at 160 rpm in LB. In wells of a 96-well polypropylene flat-bottom plate, 5 µL of the overnight bacterial culture (10^7 CFU mL^−1) was added to 100 µL of peptides/antibiotic solutions (with final concentrations of 0.25 to 512 µg mL^−1) in MHB. Plates were incubated for 18 to 20 h at 37°C. The MIC, the lowest concentration of peptides/antibiotic that caused lack of visible bacterial growth, was determined for each bacterial species. Thereafter, 5 µL of the growth at the 0.5-fold MIC suspension (10^7 CFU mL^−1) was added to a fresh medium containing peptides/antibiotic, and these mixtures were incubated as described above. This was repeated for 20 passages. All experiments were performed in triplicate to ensure reliability.

The subject of assay [7] is CRAB 2210186. Briefly: Thigh infection mouse model. In kind it is in vivo, BALB/c mice. The note with it: neutropenic mice, ~1 × 10^6 CFU in thigh, i.p. at 1, 3, 5, 7 h post-infection (PL-15 10 × MIC, 100 µL; polymyxin B 20,000–25,000 U kg^−1 day^−1), n = 8. An excerpt:
The WHO has classified CRAB as a “Critical Priority” pathogen in its Priority Pathogens List, recognizing it as a predominant causative agent of hospital-acquired infections ([2]). This classification reflects CRAB’s global dissemination, high mortality rates, and extreme resistance profiles. Given this critical situation, a thigh infection model was employed to evaluate the in vivo therapeutic efficacy of PL-15 against CRAB. To establish the mouse thigh infection model, mice were pre-treated intraperitoneally with cyclophosphamide 4 days and 1 day prior to bacterial inoculation to induce neutropenia, administered at doses of 150 mg kg^−1 and 100 mg kg^−1, respectively ([51]). Each mouse was then injected with approximately 10^6 colony-forming unit (CFU) of CRAB in the thigh tissue, followed by four intraperitoneal injections of PL-15, polymyxin B, or phosphate-buffered saline (PBS) within 24 h of infection (Fig. 3a).
All animal experiments were performed according to the “Principles of Laboratory Animal Care” (NIH publication No. 86-23, revised 1985) and approved by the Animal Care and Use Committee of Shandong University (LL20240622, Jinan, China). Five-week-old male BALB/c mice were purchased from Beijing Vital River Laboratory Animal Technology Co., Ltd. (Beijing, China) and kept under a 12-hour light/12-hour dark cycle, humidity of 50%, and temperature of 22°C in standard specific pathogen-free individually vented cages.
To establish the mouse thigh infection model, mice were injected intraperitoneally with cyclophosphamide 4 d and 1 d before bacterial administration, at concentrations of 150 and 100 mg kg^−1, respectively, to induce neutropenia ([51]). CRAB 2210186 cells were suspended in sterile PBS, adjusted to a concentration of ~1 × 10^6 CFU per infection site and injected into the right thighs of eight mice per treatment group. PL-15 (10 × MIC, 100 µL), polymyxin B (20,000–25,000 U kg^−1 day^−1) or PBS were administered intraperitoneally at 1, 3, 5, and 7 h post-infection. Mice were euthanized 24 h after infection, and the thigh tissues were aseptically collected, weighed, homogenized, serially diluted in PBS, and plated onto solid MCA. The CFU of CRAB 2210186 per thigh was calculated by plating dilutions of the thigh homogenates (0.25 g of thigh tissue in 10 mL sterile PBS) on agar plates and counting colonies.

For assay [8], the system named is CRAB. Briefly: Time-kill curve. It counts as cell-based, carbapenem-resistant Acinetobacter baumannii. Particulars: ~10^5 CFU mL^−1 in MH broth. The procedure:
as §2

The next assay has as its system S. aureus ATCC25923. It counts as cell-based, Staphylococcus aureus. The protocol: as §1
Assay [9] relates to all eight bacterial strains. It counts as cell-based, gram-positive and gram-negative bacteria. The procedure: as §1
A further assay has as its system CRPA 2403282. It counts as cell-based, carbapenem-resistant P. aeruginosa. The protocol: as §1
The subject of another assay is A. baumannii ATCC19606. In kind it is cell-based, Acinetobacter baumannii. The procedure: as §1
In a further assay the test system is CRKP 2403276. It counts as cell-based, carbapenem-resistant K. pneumoniae. The protocol:
as §1

The next assay deals with E. coli ATCC25922. In kind it is cell-based, Escherichia coli. The protocol:
as §1

Setting [10] is: MHB, ~10^5 CFU mL^−1, 37°C, 18–24 h, triplicate.

The MIC is the lowest concentration that inhibits growth of the organism.

For GVIKSVLKGVAKTVALGML-NH2 [B2RP-Era], the MIC entry in the assay on MRSA 2210187 (2210187) and in the assay with CRAB 2210186 [1] was “below 8 µg mL^−1” throughout.
Turning to `CN[C@H](CC(C)C)C(=O)N[C@H]1C(=O)N[C@@H](CC(N)=O)C(=O)N[C@H]2C(=O)N[C@H]3C(=O)N[C@H](C(=O)N[C@H](C(=O)O)c4cc(O)cc(O)c4-c4cc3ccc4O)[C@H](O)c3ccc(c(Cl)c3)Oc3cc2cc(c3O[C@@H]2O[C@H](CO)[C@@H](O)[C@H](O)[C@H]2O[C@H]2C[C@](C)(N)[C@H](O)[C@H](C)O2)Oc2ccc(cc2Cl)[C@H]1O` [vancomycin, reference compound], in the assay with MRSA (1 × MIC), the “time to complete bacterial eradication of MRSA” value was not above 6 h. The “time to full bacterial killing of MRSA” value in the assay on MRSA (2 × MIC) and in the assay on MRSA (4 × MIC) was not above 3 h throughout.
“WLKKILKWLKW [g_AMP41, short peptide … generated by AMPGenix, used as template]”: the MIC in the assay on CRAB [2] is 8 µg/mL. Besides, the “efficacy in treating infections in vivo” value in [3] is reported as “suboptimal efficacy”.
GLGSLLGKAFKIGLKTVGKMMGGAPREQ [CPF-B1]: the MIC entry against MRSA 2210187 (setting [10]) and against CRAB 2210186 [1] (setting [10]) was “below 8 µg mL^−1” throughout.
GIWKTIKSMGKVFAGKILQNL-NH2 [[D4K]B2RP]: the MIC result in the assay with MRSA 2210187 (2210187) and against CRAB 2210186 [1] was “below 8 µg mL^−1” each time.
Consider GIGKFLKKAKKFGKAFVKILKK-NH2 [pexiganan], for which the MIC entry with MRSA 2210187 (setting [10]) and with CRAB 2210186 [1] was “below 8 µg mL^−1” throughout.
For the compound polymyxin B [reference compound], in the assay on CRAB [4], the “PI fluorescence (cytoplasmic membrane integrity)” value is listed as “strongest fluorescence response”. The biofilm formation inhibition entry in the assay with CRAB [5] was “moderate biofilm inhibition”. Moreover, the “MIC change after serial passaging” value against CRAB [6] came out at 64 fold. Moreover, in the assay with CRAB 2210186 [7] (24 h), the “reduction of bacterial load compared to the PBS control group” value was “two orders of magnitude”. Moreover, the “bacteria eradicated in the thigh tissue within 24 h” value in the assay with CRAB 2210186 [7] is “over 97%”. The “time to complete bacterial eradication of CRAB” value with CRAB [8] (2 × MIC) is recorded as 6 h. Also, the “time to kill CRAB” value in the assay with CRAB [8] (4 × MIC) is not above 3 h.
For the compound “ILGKLLKTAAKLLSNL [[S7K,G11K]alyteserin-2a]”, the MIC entry against MRSA 2210187 (2210187) and against CRAB 2210186 [1] (setting [10]) was “below 8 µg mL^−1” each time.
Regarding GLLKPLLKIAAKVGSNLL-NH2 [[G4K]XT-7], the MIC entry against MRSA 2210187 (2210187) and with CRAB 2210186 [1] was “below 8 µg mL^−1” throughout.
For the compound WLKKILAWLKKKW [BR-13], the MIC entry with S. aureus ATCC25923 is “lower than 11 µg mL^−1”; against MRSA 2210187 (2210187), 3.33 µg/mL; in the assay with CRPA 2403282 it was 64 µg/mL; in the assay on CRAB 2210186 [1], 18.67 µg/mL; against A. baumannii ATCC19606, “lower than 11 µg mL^−1”; in the assay with CRKP 2403276, “lower than 11 µg mL^−1”. Also, the MIC entry with E. coli ATCC25922 is recorded as “lower than 11 µg mL^−1”. Moreover, the “MIC for all tested bacteria” value in assay [9] is not above 64 µg/mL. For the same compound, in [9] (judged from MICs on eight strains), the antimicrobial spectrum entry is recorded as “broad-spectrum antimicrobial properties”.
“LKLSPKTKDTLKKVLKGAIKGAIAIASMA-NH2 [hymenochirin-1Pa]”: the MIC result in the assay with MRSA 2210187 (2210187) and against CRAB 2210186 [1] was “below 8 µg mL^−1” each time.
